Reference: patent publication US7514424B2, “Substituted 4-(4-piperidin-4-yl-piperazin-1-yl)-azepane derivatives and their use as neurokinin antagonists” (Janssen Pharmaceutica N.V., priority 2002, dated 2009)

Key:
Experiment in all cases: Signal transduction (intracellular Ca++, FLIPR), functional antagonistic activity
Assay type in all cases: cell-based
h-NK1 = h-NK1 (Homo sapiens, UniProt P25103); details: Ca++ peak, read-out: pIC50 h-NK1 (converted)
Procedure: (§1) This test evaluates in vitro functional NK1 antagonistic activity. For the measurements of intracellular Ca^++ concentrations the cells were grown on 96-well (black wall/transparent bottom) plates from Costar for 2 days until they reached confluence. The cells were loaded with 2 μM Fluo3 in DMEM containing 0.1% BSA and 2.5 mM probenecid for 1 h at 37° C. They were washed 3× with a Krebs buffer (140 mM NaCl, 1 mM MgCl2×6H2O, 5 mM KCl, 10 mM glucose, 5 mM HEPES; 1.25 mM CaCl2; pH 7.4) containing 2.5 mM probenecid and 0.1% BSA (Ca^++-buffer). The cells were preincubated with a concentration range of antagonists for 20 min at RT and Ca^++-signals after addition of the agonists were measured in a Fluorescence Image Plate
(§2) Reader (FLIPR from Molecular Devices, Crawley, England). The peak of the Ca^++-transient was considered as the relevant signal and the mean values of corresponding wells were analysed as described below.
(§3) The sigmoidal dose response curves were analysed by computerised curve-fitting, using the GraphPad Program. The EC50-value of a compound is the effective dose showing 50% of maximal effect. For mean curves the response to the agonist with the highest potency was normalised to 100%. For antagonist responses the IC50-value was calculated using non-linear regression.
(§4) The last colums indicates—without being limited thereto—for which action the compounds might be most suitable. Of course, since for some neurokinin receptors no data was determined, it is obvious that these compounds might be attributed to another suitable use.

h-NK3 = target: T1, h-NK3 (Homo sapiens, UniProt P29371); details: Ca++ peak, read-out: pIC50 h-NK3 (converted)
T1 sequence (P29371 1-465): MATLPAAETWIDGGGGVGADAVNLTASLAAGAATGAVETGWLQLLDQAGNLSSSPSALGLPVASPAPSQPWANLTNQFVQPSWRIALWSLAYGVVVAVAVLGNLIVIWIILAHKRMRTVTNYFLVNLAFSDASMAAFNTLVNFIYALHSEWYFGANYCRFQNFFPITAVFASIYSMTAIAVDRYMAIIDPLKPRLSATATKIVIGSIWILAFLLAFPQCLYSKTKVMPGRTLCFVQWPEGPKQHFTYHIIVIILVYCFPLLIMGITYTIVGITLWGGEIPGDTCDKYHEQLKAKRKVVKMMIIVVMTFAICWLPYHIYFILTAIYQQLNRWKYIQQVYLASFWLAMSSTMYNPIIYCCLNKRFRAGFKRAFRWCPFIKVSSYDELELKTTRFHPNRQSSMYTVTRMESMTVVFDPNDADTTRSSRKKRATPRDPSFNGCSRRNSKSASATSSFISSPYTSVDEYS
Procedure: [Worded in the source for another target; this target is reported under the same test.] as §1, §2, §3, §4

h-NK2 = target: T2, h-NK2 (Homo sapiens, UniProt P21452); details: Ca++ peak, read-out: pIC50 h-NK2 (converted)
T2 sequence (P21452 1-398): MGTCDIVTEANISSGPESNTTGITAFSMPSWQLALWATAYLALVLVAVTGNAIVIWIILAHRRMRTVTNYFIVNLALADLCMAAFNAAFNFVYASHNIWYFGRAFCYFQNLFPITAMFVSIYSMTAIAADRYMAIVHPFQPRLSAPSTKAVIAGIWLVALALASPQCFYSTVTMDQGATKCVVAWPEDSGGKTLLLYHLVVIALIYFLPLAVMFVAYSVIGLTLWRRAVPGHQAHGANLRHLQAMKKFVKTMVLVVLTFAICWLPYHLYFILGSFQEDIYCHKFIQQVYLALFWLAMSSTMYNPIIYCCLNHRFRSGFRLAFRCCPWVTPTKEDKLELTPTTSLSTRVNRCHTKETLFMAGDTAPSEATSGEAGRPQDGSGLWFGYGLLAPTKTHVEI
Procedure: [Worded in the source for another target; this target is reported under the same test.] as §1, §2, §3, §4

Chain of h-NK1 (P25103 whole entry): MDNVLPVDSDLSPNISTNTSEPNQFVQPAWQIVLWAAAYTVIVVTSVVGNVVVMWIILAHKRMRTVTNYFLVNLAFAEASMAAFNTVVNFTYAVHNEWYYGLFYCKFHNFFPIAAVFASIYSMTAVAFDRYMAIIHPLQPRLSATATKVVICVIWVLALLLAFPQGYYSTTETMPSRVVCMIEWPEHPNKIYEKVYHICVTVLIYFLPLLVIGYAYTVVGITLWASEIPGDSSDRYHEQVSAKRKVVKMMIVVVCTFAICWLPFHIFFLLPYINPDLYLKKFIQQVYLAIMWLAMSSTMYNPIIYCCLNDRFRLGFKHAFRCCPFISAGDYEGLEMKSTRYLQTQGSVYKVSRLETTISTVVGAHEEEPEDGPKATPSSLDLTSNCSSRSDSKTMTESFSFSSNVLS

SMILES	IC50 (h-NK1)	IC50 (h-NK3)	IC50 (h-NK2)
CCOC(=O)N1CCCC(N2CCN(C3CCN(C(=O)c4cc(C(F)(F)F)cc(C(F)(F)F)c4)C(Cc4ccccc4)C3)CC2)CC1 (stereo not shown) [Compound 4]	166 nM		
CC(C)(C)OC(=O)N1CCCC(N2CCN(C3CCN(C(=O)c4cc(C(F)(F)F)cc(C(F)(F)F)c4)C(Cc4ccccc4)C3)CC2)CC1 (stereo not shown) [Compound 1]	32.4 nM	10000 nM	
Cc1cc(C(=O)N2CCCC(N3CCN(C4CCN(C(=O)c5cc(C(F)(F)F)cc(C(F)(F)F)c5)C(Cc5ccccc5)C4)CC3)CC2)no1 (stereo not shown) [Compound 8]	28.2 nM	10000 nM	
O=C(c1ccccc1)N1CCCC(N2CCN(C3CCN(C(=O)c4cc(C(F)(F)F)cc(C(F)(F)F)c4)C(Cc4ccccc4)C3)CC2)CC1 (stereo not shown) [Compound 3]	200 nM		
O=C(c1ccoc1)N1CCCC(N2CCN(C3CCN(C(=O)c4cc(C(F)(F)F)cc(C(F)(F)F)c4)C(Cc4ccccc4)C3)CC2)CC1 (stereo not shown) [Compound 7]	28.8 nM	1910 nM	

Results, then the compound that gave them:

IC50 (h-NK1)	IC50 (h-NK3)	IC50 (h-NK2)	SMILES
148 nM			O=C(c1ccc(F)c(F)c1)N1CCCC(N2CCN(C3CCN(C(=O)c4cc(C(F)(F)F)cc(C(F)(F)F)c4)C(Cc4ccccc4)C3)CC2)CC1 (stereo not shown) [Compound 5]
302 nM			Cc1cccc(C(=O)N2CCCC(N3CCN(C4CCN(C(=O)c5cc(C(F)(F)F)cc(C(F)(F)F)c5)C(Cc5ccccc5)C4)CC3)CC2)c1 (stereo not shown) [Compound 9]
158 nM	1350 nM	9330 nM	O=C(c1cccc(F)c1)N1CCCC(N2CCN(C3CCN(C(=O)c4cc(C(F)(F)F)cc(C(F)(F)F)c4)C(Cc4ccccc4)C3)CC2)CC1 (stereo not shown) [Compound 6]
